# According to ChEMBL document CHEMBL1144300, “Tellurium-based cysteine protease inhibitors: evaluation of novel organotellurium(IV) compounds as inhibitors of human cathepsin B” (Bioorg Med Chem Lett, 2005):
# Biological target: Cathepsin B (Homo sapiens) (UniProt P07858)
# Assay: Second-order rate constant for inactivation of human cathepsin B
row,SMILES,K2 [M⁻¹ s⁻¹]
1,OC(C/C(=C\Cl)[Te](Cl)(Cl)Cl)c1ccccc1 (centres undefined),12000
2,COc1ccc([Te]2(Cl)OC3(CCCCC3)/C2=C\Br)cc1 (centres undefined),7700
3,COc1ccc([Te]2(Cl)OC3(CCCCC3)/C2=C\Cl)cc1 (centres undefined),36000
4,COc1ccc([Te]2(Cl)OC3(CCCCCC3)/C2=C\Cl)cc1 (centres undefined),1600
5,COc1ccc([Te](Cl)(Cl)/C(=C/Cl)C(C)(C)O)cc1,11000
6,COc1ccccc1C(=O)/C=C(/c1ccccc1OC)[Te](Cl)(Cl)Cl,15000
7,COc1ccc([Te](Cl)(Cl)/C=C(\Cl)c2ccccc2)cc1,7900
8,Cl[Te]1(Cl)OCCO1,0.037
9,CC[N+](CC)(CC)Cc1ccccc1.ClC1=C[Te](Cl)(Cl)OC1,6000
